The nature of series [1]: nephelometric (kinetic) solubility determination, phosphate buffer pH 7.4. It is filed as physicochemical. To be noted: for solubility kinetic: aqueous buffer, kinetic from dmso stock. The protocol:
A DMSO solution of the test compound (2.5 mM; 0.5 μl) is pipetted into 200 μl of an aqueous test solution (e.g. phosphate-buffered saline, 10×, 1M, Sigma, adjusted to 10 mM, pH 7.4) in a 96-well microtiter plate, and the turbidity is measured at the resulting theoretical concentration for the test compound of 6.25 μM using a nephelometer (e.g. Nephelostar Galaxy, BMG Labtech). The concentration of the test compound in the aqueous test solution is then raised to a theoretical 12.5 μM by adding further DMSO solution (2.5 mM; 0.5 μl), and the turbidity measurement is repeated. Further additions of DMSO solutions (1 μl, 2.5 mM; 0.5 μl, 10 mM; then 9×1 μl, 10 mM resulting in theoretical concentrations of 25 μM, 50 μM, 100 μM, 150 μM, 200 μM, 250 μM, 300 μM, 350 μM, 400 μM, 450 μM and 500 μM) with turbidity measurement in between complete the measurement process.
Evaluation: The turbidity values from the nephelometer are plotted against the theoretical concentration of the test compound in the aqueous test solution. As soon as a significant turbidity is detected (e.g. 5 times above the control value of the aqueous test solution) at a theoretical concentration, the level of concentration below this is stated to be the solubility limit of the test compound in the test solution. Thus, the maximum possible measurement range emerges as values<6.25 μM, 6.25-500 μM and >500 μM.

For another series, the target named is T1, human MCH receptor (Homo sapiens, UniProt Q99705).
T1 construct: expressed in transfected cells
T1 sequence (Q99705 whole entry): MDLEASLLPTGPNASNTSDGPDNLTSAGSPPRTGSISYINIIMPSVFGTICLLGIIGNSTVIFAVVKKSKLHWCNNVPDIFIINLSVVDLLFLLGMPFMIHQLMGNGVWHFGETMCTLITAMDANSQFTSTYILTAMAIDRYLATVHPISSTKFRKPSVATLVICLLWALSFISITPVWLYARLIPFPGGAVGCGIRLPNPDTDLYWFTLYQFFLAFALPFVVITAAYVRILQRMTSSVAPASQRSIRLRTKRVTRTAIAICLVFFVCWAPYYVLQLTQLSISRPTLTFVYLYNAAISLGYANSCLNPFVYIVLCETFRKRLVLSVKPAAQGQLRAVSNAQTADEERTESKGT
The series is described as follows: calcium mobilization assay (FLIPR), functional IC50 of MCH1R antagonists. In kind it is cell-based. To be noted: recombinant HEK293 cell line expressing the human MCH receptor; calcium flux after addition of agonist (MCH); read-out: IC50. From the text: A difference from the reference was, however, the use of the plasmid pEAK8 from EDGE Biosystems (USA) for the construction of the expression vector. The host used for the transfection was a transformed HEK cell line named “PEAK Stable Cells” (likewise from EDGE Biosystems). Functional measurements of the cellular calcium flux after addition of agonist (MCH) in the presence of ligand of the invention took place with the aid of the FLIPR apparatus from Molecular Devices (USA), using protocols of the apparatus manufacturer.
For orientation: Calcium flux is commonly read through the fluorescence of an indicator in the cells.

Where [2] appears, read: nephelometry, Table 8, reference compounds versus inventive examples.

Experimental findings from patent US8841290B2, “Substituted tetrahydronaphthalenes, method for the production thereof, and use thereof as drugs” (Sanofi, priority 2009, dated 2014) are described below.

≈ marks a conversion by molar mass, not a printed value. Some results are limits rather than exact numbers.

The term kinetic solubility denotes the concentration staying in solution when a stock, usually in DMSO, is diluted into the medium. By IC50 is commonly meant the concentration needed to halve the response being measured.

`CN(C(=O)c1ccc(OCC2CC2)cc1)[C@H]1CCc2cc(CNCC3CCOCC3)ccc2C1` [Example 1-01, 4-Cyclopropylmethoxy-N-methyl-N—((S)-6-{[(tetrahydropyran-4-ylmethyl)amino]methyl}-1,2,3,4-tetrahydronaphthalen-2-yl)benzamide] displayed a kinetic solubility in series [1] (nephelometric, Table 7) of 153 µg/mL (≈ 331 µM). In addition, the IC50 on human MCH receptor worked out at 121 nM.
Regarding `CN(C(=O)c1ccc(OCC2CC2)cc1)[C@H]1CCc2cc(CNC[C@@H]3CCCO3)ccc2C1` [Example 1-02], the kinetic solubility in series [1] (nephelometric, Table 7) was over 281 µg/mL. Also, the concentration for half-maximal inhibition (IC50) at human MCH receptor was 215 nM.
The corresponding values for `CN(C(=O)c1ccc(OCC2CC2)cc1)[C@H]1CCc2cc(CNC[C@H]3CCCO3)ccc2C1` [Example 1-03] are over 281 µg/mL and 130 nM.
The corresponding values for `CN(C(=O)c1ccc(OCC2CC2)cc1)[C@H]1CCc2cc(CNCC3CCOC3)ccc2C1` (stereo partly shown) [Example 1-04] are over 281 µg/mL and 116 nM.
On the same counts, the results for `CN(C(=O)c1ccc(OCC2CC2)cc1)[C@H]1CCc2cc(CNCC3(C)COC3)ccc2C1` [Example 1-05] are over 281 µg/mL and 125 nM.
Consider `CN(C(=O)c1ccc(OCC2CC2)cc1)[C@H]1CCc2cc(CNCC3CCCOC3)ccc2C1` (stereo partly shown) [Example 1-07], for which the solubility (kinetic) in series [1] (nephelometric, Table 7) was over 288 µg/mL. Also, the IC50 on human MCH receptor was 154 nM.
In the case of `CN(C(=O)c1ccc(OCC2CC2)cc1)[C@H]1CCc2cc(CNCC3(C)CCOCC3)ccc2C1` [Example 1-08], in series [1] (nephelometric, Table 7), the solubility (kinetic) was over 295 µg/mL. Besides, the half-inhibitory concentration (IC50) on human MCH receptor came to 126 nM.
In series [1] (nephelometric, Table 7), `CN(C(=O)c1ccc(OCC2CC2)cc1)[C@H]1CCc2cc(CNCC3COCCO3)ccc2C1` (stereo partly shown) [Example 1-09] yielded a kinetic solubility of over 289 µg/mL. On human MCH receptor, the IC50 is 124 nM.
The molecule `CN(C(=O)c1ccc(OCC2CC2)cc1)[C@H]1CCc2cc(CNCCC3CCCO3)ccc2C1` (stereo partly shown) [Example 1-10] had a kinetic solubility in series [1] (nephelometric, Table 7) of over 288 µg/mL. Moreover, at human MCH receptor, the 50% inhibitory concentration (IC50) was 140 nM.
On the same counts, the results for `CN(C(=O)c1ccc(OCC2CC2)cc1)[C@H]1CCc2cc(CNCC3(C)CCCO3)ccc2C1` (stereo partly shown) [Example 1-11] are over 288 µg/mL and 172 nM.
In series [1] (nephelometric, Table 7), `CC1CCC(CNCc2ccc3c(c2)CC[C@H](N(C)C(=O)c2ccc(OCC4CC4)cc2)C3)O1` (stereo partly shown) [Example 1-12] returned a kinetic solubility of over 288 µg/mL. Moreover, the half-maximal inhibitory concentration (IC50) at human MCH receptor came to 165 nM.
The corresponding values for `CN(Cc1ccc2c(c1)CC[C@H](N(C)C(=O)c1ccc(OCC3CC3)cc1)C2)CC1CCOCC1` [Example 1-13] are over 295 µg/mL and 284 nM.
`CCN(Cc1ccc2c(c1)CC[C@H](N(C)C(=O)c1ccc(OCC3CC3)cc1)C2)CC1CCOCC1` [Example 1-14] showed a kinetic solubility in series [1] (nephelometric, Table 7) of 30 µg/mL (≈ 61.1 µM). On human MCH receptor, the half-inhibitory concentration (IC50) was found to be 507 nM.
`CN(C(=O)c1ccc(C2CCCCC2)cc1)[C@H]1CCc2cc(CNCC3CCOCC3)ccc2C1` [Example 2-01, 4-Cyclohexyl-N-methyl-N—((S)-6-{[(tetrahydropyran-4-ylmethyl)amino]methyl}-1,2,3,4-tetrahydronaphthalen-2-yl)benzamide] displayed a kinetic solubility in series [1] (nephelometric, Table 7) of over 294 µg/mL. Besides, the IC50 on human MCH receptor amounted to 1330 nM.
The corresponding values for `CN(C(=O)c1ccc(NC(=O)C(F)(F)F)cc1)[C@H]1CCc2cc(CNCC3CCOCC3)ccc2C1` [Example 2-02] are over 309 µg/mL and 1360 nM.
The corresponding values for `CC1CCN(c2ccc(C(=O)N(C)[C@H]3CCc4cc(CNCC5CCOCC5)ccc4C3)cc2)CC1` [Example 2-03] are over 302 µg/mL and 1070 nM.
In series [1] (nephelometric, Table 7), `O=C(N[C@H]1CCc2cc(CNCC3CCOCC3)ccc2C1)c1ccc(NC(=O)C(F)(F)F)cc1` [Example 2-04] showed a solubility (kinetic) of 15 µg/mL (≈ 30.6 µM). For the same molecule, the 50% inhibitory concentration (IC50) on human MCH receptor stood at 3690 nM.
Turning to `CC1CCN(c2ccc(C(=O)N[C@H]3CCc4cc(CNCC5CCOCC5)ccc4C3)cc2)CC1` [Example 2-05], the solubility (kinetic) in series [1] (nephelometric, Table 7) was found to be 15 µg/mL (≈ 31.5 µM). Moreover, the 50% inhibitory concentration (IC50) at human MCH receptor is 248 nM.
On the same counts, the results for `CCCCOc1ccc(C(=O)N(C)[C@H]2CCc3cc(CNCC4CCOCC4)ccc3C2)cc1` [Example 2-06] are 203 µg/mL (≈ 437 µM) and 146 nM.
The corresponding values for `CCCCOc1ccc(C(=O)N(C)[C@H]2CCc3cc(CNCC4CCOCC4)ccc3C2)nc1` [Example 2-07] are over 290 µg/mL and 141 nM.
The corresponding values for `CCCOc1ccc(C(=O)N(C)[C@H]2CCc3cc(CNCC4CCOCC4)ccc3C2)nc1` [Example 2-08] are over 283 µg/mL and 220 nM.
In series [1] (nephelometric, Table 7), `CC(C)COc1ccc(C(=O)N(C)[C@H]2CCc3cc(CNCC4CCOCC4)ccc3C2)nc1` [Example 2-09] displayed a solubility (kinetic) of over 290 µg/mL. The IC50 at human MCH receptor amounted to 360 nM.
In turn, `CN(C(=O)c1ccc(OCC2CC2)cn1)[C@H]1CCc2cc(CNCC3CCOCC3)ccc2C1` [Example 3, 5-Cyclopropylmethoxypyridine-2-carboxylic acid methyl-((S)-6-{[(tetrahydropyran-4-ylmethyl)amino]methyl}-1,2,3,4-tetrahydronaphthalen-2-yl)amide] yielded a solubility (kinetic) in series [1] (nephelometric, Table 7) of over 289 µg/mL. Moreover, the IC50 on human MCH receptor turned out to be 180 nM.
The corresponding values for `CN(C(=O)c1ccc(OCC2CC2)cc1)[C@H]1CCc2cc([C@H]3CCCN3)ccc2C1` [Example 4-01, 4-Cyclopropylmethoxy-N-methyl-N—((S)—(R)-6-pyrrolidin-2-yl-1,2,3,4-tetrahydronaphthalen-2-yl)benzamide] are over 221 µg/mL and 136 nM.
With `C[C@H]1CC[C@H](c2ccc3c(c2)CC[C@H](N(C)C(=O)c2ccc(OCC4CC4)cc2)C3)N1` [Example 4-02, 4-Cyclopropylmethoxy-N-methyl-N—[(S)-6-((2R,5S)-5-methylpyrrolidin-2-yl)-1,2,3,4-tetrahydronaphthalen-2-yl]benzamide], in series [1] (nephelometric, Table 7), the kinetic solubility was found to be 10 µg/mL (≈ 23.9 µM). Besides, the IC50 on human MCH receptor was 228 nM.
The molecule `CN(C(=O)c1ccc(OCC2CC2)cc1)[C@H]1CCc2cc(C3CCCCN3)ccc2C1` (stereo partly drawn) [Example 4-03, 4-Cyclopropylmethoxy-N-methyl-N—((S)-6-piperidin-2-yl-1,2,3,4-tetrahydronaphthalen-2-yl)-benzamide] registered a solubility (kinetic) in series [1] (nephelometric, Table 7) of 10 µg/mL (≈ 23.9 µM). The IC50 at human MCH receptor was 788 nM.
In the case of `CN(C(=O)c1ccc(OCC2CC2)cn1)[C@H]1CCc2cc(C3CCCN3)ccc2C1` (stereo partly drawn) [Example 4-04, N-Methyl-N—((S)-6-pyrrolidin-2-yl-1,2,3,4-tetrahydronaphthalen-2-yl)-5-cyclopropylmethoxypyridine-2-carboxamide], the solubility (kinetic) in series [1] (nephelometric, Table 7) is over 41 µg/mL. Further, the 50% inhibitory concentration (IC50) at human MCH receptor stood at 703 nM.
For the molecule `CN1CCC[C@@H]1c1ccc2c(c1)CC[C@H](N(C)C(=O)c1ccc(OCC3CC3)cc1)C2` [Example 5-01], the kinetic solubility in series [1] (nephelometric, Table 7) was over 266 µg/mL. For the same molecule, the IC50 at human MCH receptor stood at 137 nM.
The corresponding values for `CCN1CCC[C@@H]1c1ccc2c(c1)CC[C@H](N(C)C(=O)c1ccc(OCC3CC3)cc1)C2` [Example 5-02] are over 273 µg/mL and 152 nM.
Consider `CN(C(=O)c1ccc(OCC2CC2)cc1)[C@H]1CCc2cc([C@H]3CCCN3CC3CCOCC3)ccc2C1` [Example 5-03], for which the kinetic solubility in series [1] (nephelometric, Table 7) stood at 15 µg/mL (≈ 29.8 µM). Moreover, at human MCH receptor, the 50% inhibitory concentration (IC50) was 858 nM.
On the same counts, the results for `C[C@H]1CC[C@H](c2ccc3c(c2)CC[C@H](N(C)C(=O)c2ccc(OCC4CC4)cc2)C3)N1C` [Example 5-04] are over 273 µg/mL and 134 nM.
In series [1] (nephelometric, Table 7), `CCN1[C@@H](c2ccc3c(c2)CC[C@H](N(C)C(=O)c2ccc(OCC4CC4)cc2)C3)CC[C@@H]1C` [Example 5-05] returned a kinetic solubility of 168 µg/mL (≈ 376 µM). For the same molecule, on human MCH receptor, the concentration for half-maximal inhibition (IC50) was 519 nM.
As for `CCN1CCCCC1c1ccc2c(c1)CC[C@H](N(C)C(=O)c1ccc(OCC3CC3)cc1)C2` (stereo partly shown) [Example 5-07], the kinetic solubility in series [1] (nephelometric, Table 7) is over 280 µg/mL. Further, the half-inhibitory concentration (IC50) at human MCH receptor was 370 nM.
The corresponding values for `CN1CCCC1c1ccc2c(c1)CC[C@H](N(C)C(=O)c1ccc(OCC3CC3)cn1)C2` (stereo partly shown) [Example 5-10] are 13 µg/mL (≈ 31 µM) and 646 nM.
In the case of `CCCCOc1ccc(C(=O)N[C@H]2CCc3cc(CN4CCCC4)ccc3C2)cc1` [Example 6-01], the kinetic solubility in series [1] (nephelometric, Table 7) was 13 µg/mL (≈ 32 µM). The “pH 7.4 (solubility)” value in series [1] (setting [2]) came out at 0.013 mg/ml. Further, the 50% inhibitory concentration (IC50) on human MCH receptor stood at 127 nM.
The corresponding values for `CC[C@H](O)COc1ccc(C(=O)N[C@H]2CCc3cc(CN4CCCC4)ccc3C2)cc1` [Example 6-02] are over 268 µg/mL, over 0.268 mg/ml and 223 nM.
Regarding `O=C(N[C@H]1CCc2cc(CN3CCCC3)ccc2C1)c1ccc(-c2ccc(F)cc2)cc1` [Ref-1, reference compound], the solubility (kinetic) in series [1] (setting [2]) was 3 µg/mL (≈ 7 µM).
Still for that read-out and setting: the result for `CN(C(=O)c1ccc(-c2ccc(F)cc2)cc1)[C@H]1CCc2cc(CN3CCCC3)ccc2C1` [Ref-2, reference compound] reads 7 µg/mL (≈ 15.8 µM).
